Experimental data as given in PubChem BioAssay (NCI).
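1) Cells in 96-well plates. 2) Compound, 48 h, 5 concentrations. 3) Linear interpolation between surrounding doses. 4) Unreached endpoint = highest concentration. Abbreviation: GI50, concentration required for 50% inhibition of growth. At the TGI there is no net growth.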

Experiments:
Test in all cases: NCI-60 cell line screen, 48 h
[1] = test system: HT29 colon
[2] = test system: MOLT-4 leukemia
[3] = test system: NCI-H23 lung
[4] = test system: OVCAR-3 ovarian
[5] = test system: OVCAR-5 ovarian
[6] = test system: OVCAR-8 ovarian
[7] = test system: RPMI-8226 leukemia
[8] = test system: SF-295 CNS
[9] = test system: SK-MEL-2 melanoma
[10] = test system: SNB-19 CNS

Structure (SMILES)	GI50 [1] [µM]	TGI [1] [µM]	GI50 [2] [µM]	TGI [2] [µM]	GI50 [3] [µM]	TGI [3] [µM]	GI50 [4] [µM]	TGI [4] [µM]	GI50 [5] [µM]	TGI [5] [µM]	GI50 [6] [µM]	TGI [6] [µM]	GI50 [7] [µM]	TGI [7] [µM]	GI50 [8] [µM]	TGI [8] [µM]	GI50 [9] [µM]	TGI [9] [µM]	GI50 [10] [µM]	TGI [10] [µM]
O=[N+]([O-])c1ccc(Oc2nc(Nc3ccc(O[C@H]4CO[C@H]5[C@@H]4OC[C@@H]5O)c(Cl)c3)ncc2F)c(Cl)c1	2.43	11.7	1.27	4.82	1.3	3.22	1.4	5.83	2.33	16.8	1.21	> 100	0.61	2.56	1.39	2.92	0.483	2.04	2.89	9.81
Cc1ccc(C(=O)N(Cc2ccccc2)Cc2ccccc2)cc1N=NN(C)C		21.3		> 100		58.7		43.1		> 100		> 100		> 100		> 81.5		9.79		> 100
Oc1ccc(-c2nc3ccc4[nH]ncc4c3c3c2CCCC3)c(F)c1	2.7	11.2	1.91	8.88	3.15	14	2.89	7.85	4.41	17.6	1.92	9.39	1.8	10.7	3.81	14.3	1.01	2.93	3.59	14.2
CCN1C(=O)CCCc2c1ccc(Nc1ncc(Cl)c(NC3[C@@H](C(N)=O)[C@@H]4C=C[C@H]3C4)n1)c2OC (stereo not given in full)	0.791	9.06	1.41	11.3	1.56	9.47	2.14	10.6	1.34	> 22.2	1.41	32.2	0.976	4.26	1.45	13.3	1.44	3.79	1.94	14
CN(C)c1nnnn1-c1c(N)n(C)c(=O)n(C)c1=O		> 100		> 100		> 100		> 100		> 100		> 100		> 100		> 100		> 100		> 100
Cc1ccc(NC(=O)C2C(=O)N(c3ccc(C)c(C)c3)C(=O)/C2=N\NC(N)=O)cc1C (stereo not given)		> 100		> 100		> 100		> 100		> 100		> 100		> 100		> 100		> 100		> 100
COc1ccc(C(c2ccc(OCCN(C)C)cc2)c2cc3ccccc3c3ccccc23)cc1 (stereo not given)	1.6	3.1	1.58	3.42	1.83	3.8	1.66	3.07	1.56	3.27	1.7	3.17	1.93	4.25	1.77	3.33	1.54	2.97	1.72	3.31
N#Cc1c(Br)n(C2OC(CO)C(O)C2O)c2ncnc(N)c12 (stereo not given)	0.885	> 36.2	0.723	7.02	3.63	41.1	1.6	34.1	4.17	> 100	1.59	> 100	1.26	6.69	2.07	30.7	5.3	14.1	4.35	> 75.9
CCCCCCCCCCCCCCCCNCCCN(C)CCCN		35.8		94.1		34.1		35.9		31.7		38.5		46.2		33.4		41.8		31.5
Cn1nc(-c2ccc(Cl)cc2)nc2c(=O)n(C)c(=O)nc1-2	1.11	11.3	1.13	3.22	1.18	3.16	0.275	1.2	0.949	1.77	0.976	3.51	0.886	2.23	0.777	1.81	1.5	9.29	3.03	6.73
CCCCC(C)C(OC(=O)CC(CC(=O)O)C(=O)O)C(CC(C)CC(O)CCCCC(O)CC(O)C(C)N)OC(=O)CC(CC(=O)O)C(=O)O (stereo not given)		> 100		> 100		> 100		> 100		> 100		> 100		> 100		> 100		> 100		> 100
S=c1nc(COc2ccc(Cl)cc2Cl)[nH][nH]1		> 100		> 100		> 100		> 100		> 100		> 100		> 100		> 100		> 100		> 100
CC(C)(C)c1ccc(OC(=O)Nc2ccc(O)c(C(=O)O)c2)cc1		> 100		> 100		> 100		> 100		> 100		> 100		> 100		> 100		> 100		> 100
